Experimental data as given in patent US6348571B1, “Corticotropin release inhibiting factor and methods of using same” (Northwestern University, priority 1994, dated 2002).
Ends that are not written are not given here.

What was measured:
[1] = tested on: SCW-induced inflammatory response; experiment: Thyroid status and SCW-induced inflammatory response in female rats; format: in vivo, rat
From the text: RA is an autoimmune disease characterized by chronic degradation of the joints resulting from inflammation of synovial membranes. SCW-induced inflammation in the autoimmune prone female Lewis rat is an accepted animal model for the study of RA. […] It is likely that increased thyroid activity decreases the susceptibility to inflammatory immune disease by increasing glucocorticoid levels. The discovery of CRIF encoded within the same precursor as TRH establishes a direct link between the HPA and thyroid axes. Thyroid hormones may play a fundamental role in regulating the HPA axis by modulation of levels of prepro-TRH mRNA.
To determine the role played by thyroid hormones and concomitant changes in the HPA axis in the development of SCW-induced inflammatory response, expression of genes which reflect the status of thyroid function (TRH), pituitary-adrenal activity (POMC) and inflammation (IL-1β and MIP-1α, a macrophage specific inflammatory protein) was measured. Adult female rats were fed a regular diet (control), or a regular diet plus 0.012% T4 (hyperthyroid) or 0.05% 6-propyl-thiouracil (PTU) supplied in the in drinking water (hypothyroid), for seven weeks. A preparation of SCW (20 μg/g of body weight) was administered intraperitoneally to the rats three days before decapitation. Anterior pituitary POMC, hypothalamic TRH and peritoneal macrophage IL-1β and MIP-1α mRNA levels were assessed by Northern blot hybridization analysis using specific cDNA probes. The levels of mRNA were normalized to the housekeeping gene, GAPD, and were quantified by image analysis densitometry. Plasma levels of TSH and CORT were determined by RIA.

AtT-20 cells = experiment: Bioassay of synthetic prepro-TRH peptides: ACTH secretion in AtT-20 cells; format: cell-based, mouse; conditions: peptide 10^-10-10^-6 M, 4 hours, 50 nM CRF
Method: (§1) The bioactivity of various synthetic peptides corresponding to the various prepro-TRH intervening sequences was assessed in AtT-20 or primary anterior pituitary cells. All experiments were conducted in triplicate. To perform this assay, AtT-20 cells were plated at a density of 10^5 cells/well in 24 well plates. After 24 hours, the medium was removed and replaced with steroid-free medium containing the test peptide at a concentration of 10^−10-10^−6 M. When primary pituitary cultures were used, freshly dispersed anterior pituitary cells (1-2×10^5 cells/well) were plated in 24 well plates for 48 hours using steroid free media. Again, after 24 hours, the medium was removed and replaced with steroid-free medium containing the test peptide at a concentration of 10^−10-10^−6 M. The supernatants from the cells were harvested after 4 hours of incubation under unstimulated or CRF-stimulated conditions. AtT-20 cells were stimulated with 50 nM CRF and primary pituitary cells were stimulated with 10 nM CRF. The supernatants were centrifuged and stored at −80° C.
(§2) ACTH-like immunoreactivity was measured using an antiserum which reacts with amino acids 1-24 and 1-39 on ACTH on an equimolar basis. The assay is described in Redei et al. (1988, Endocrinology, 123:2736-2743). For these studies, ^125I-ACTH 1-39 was used as a tracer. This assay is capable of detecting as little as 3 pg ACTH/tube. Intraassay and interassay coefficients of variation were 6.4% and 11.6% respectively.
Peptides prepro-TRH 115-151, 160-169 and 178-199 were obtained from Penninsula Lab Inc. (Belmont, Calif.); peptides prepro-TRH 53-74, 83-106 and TRH precursor peptide (Lys-Arg-Gln-His-Pro-Gly-Lys-Arg) were obtained from American Peptide Co. Inc. (Sunnyvale, CA); and, peptides prepro-TRH 25-50, 208-220 and 230-255 were obtained from Quality Control QCB, Hopkington, Mass.

rats = experiment: Side effects in rats treated in vivo with CRIF
[2] = tested on: primary anterior pituitary cells; experiment: Bioassay of synthetic prepro-TRH peptides: ACTH secretion in primary anterior pituitary cells; format: cell-based; conditions: primary pituitary cell cultures, 10 nM CRF
Method: as §1
as §2, with “Intraassay and interassay coefficients of variation were 6.4% and 11.6% respectively.” left out

At-20 cells = experiment: Inhibition of PMA- or forskolin-stimulated ACTH release in At-20 cells by small CRIF peptides; format: cell-based; conditions: PMA 100 nM, FIG. 18
Method: FIG. 19 is a graph and amino acid sequences [SEQ ID NOS:1, 6 and 5, resepctively], where the graph depicts the fact that forskolin-stimulated ACTH secretion is inhibited by peptides derived from prepro-TRH 178-199. The biological activity of small CRIF peptides was tested in vitro, using inhibition of ACTH release in At-20 cells as the bioassay. These peptides were tested in 2-7 independent experiments, where treatments were added in triplicate. Forskolin was used at a concentration of 20 μM, and PMA was used at a concentration of 100 nM.
CRIF peptides having either four contiguous amnino acids or nine contiguous amino acids positioned between the fourth and fifth TRH sequence in a rprepro-TRH polypeptide were prepared. These peptides are referred to herein as rprepro-TRH 196-199 (SEQ ID NO:5, having four contiguous amino acids) and rprepro-TRH 191-199 (SEQ ID NO:6, having nine contiguous amino acids). The CRIF activity of each of these peptides was assessed in vitro in a bioassay, wherein inhibition of ACTH release in At-20 cells was used as a measure of CRIF activity. Full length CRIF (rprepro-TRH 178-199) was used as a positive control. […] Thus, CRIF peptides having less than twenty two contiguous amino acids have CRIF activity.

F344XBN rats = experiment: Forced swim test after sub-acute icv administration; format: in vivo
Method: In FIG. 20 there is shown data which establish that prepro-TRH 191-199 decreased immobility in the forced swim test when the peptide was administered to a rat icv. In this experiment, adult male Sprague-Dawley or F1 Brown Norway/Fisher344 rats were used in these experiments. Rats were implanted with cannulae into the lateral ventricle as described previously (McGivern, 1997, J. Neurosci. 17:4886-4894). For the stereotaxic surgery, animals were anesthetized (ketamine, 50 mg/kg/xylazine, 8 mg/kg) and positioned in a stereotaxic head fame. At the end of behavioral testing, placements will be verified by anesthetizing the animal with pentobarbital (45 mg/kg) and injecting 1 μl tryphan blue staining solution through the cannulae just prior to decapitation. Only data from animals with correct placement were included in the analysis.
At least 7 days after the stereotaxic surgery, animals were subjected to an initial 15 minute swim pretest, followed by a 5-minute swim test 24 hours later. Rats received two injections of sterile vehicle or prepro-TRH 178-199 (1.5, 3.0, 6.0 or 12.0 μg/kg; 0.6, 1.2., 2.3 and 4.6 nmol/kg) in […] between the pretest and the test. 15 minutes after the initial (pre)-swim and 5 minutes before the test swim. In the case of prepro-TRH 191-199 administration, the C-terminal peptide was administered in this sub-acute fashion at 2.2 μg/kg (2.3 nmol/kg) dose, which is equivalent to 6 μg/kg prepro-TRH 178-199. Water was chosen instead of saline or artificial CSF for solubility reasons: the peptide dissolved much better in sterile, pyrogen-free water and animals tolerated this vehicle very well even after 14 days of daily administration. F344XBN rats were used. Prepro-TRH 191-199 had effects very similar to those of the full-length peptide.

CCCc1cc(=O)[nH]c(=S)[nH]1 [PTU, 6-propyl-thiouracil]
increase in macrophage MIP-1α mRNA levels on SCW administration ([1]; SCW 20 μg/g ip, SCW-administered control rats 17-fold): 22 fold
plasma CORT levels ([1]; altered thyroid status, FIG. 12E): significant decrease
increase of hypothalamic TRH mRNA levels ([1]; hypothyroid group, 0.05% in drinking water, seven weeks, p<0.01): 52%

prepro-TRH 53-74: intervening peptide of rat prepro-TRH, amino acids 53-74 (FLWKDLQRVRGDLGAALDSWIT; UniProt P01150 53-74, looked up, fragment)
bioactivity: basal and CRF-stimulated ACTH secretion (AtT-20 cells): only the peptide comprising amino acids 178-199 exhibited bioactivity

FIDPELQRSWEEKEGEGVLMPE [prepro-TRH 178-199]
side effects associated with administration (rats): no discernible deleterious side effects

prepro-TRH 208-220: intervening peptide of rat prepro-TRH, amino acids 208-220 (ALGHPCGPQGTCG; UniProt P01150 208-220, looked up, fragment)
bioactivity: basal and CRF-stimulated ACTH secretion (AtT-20 cells): only the peptide comprising amino acids 178-199 exhibited bioactivity

prepro-TRH 230-255: intervening peptide of rat prepro-TRH, amino acids 230-255 (DLSRGQETLVKQSPQVEPWDKEPLEE; UniProt P01150 230-255, looked up, fragment)
bioactivity: basal and CRF-stimulated ACTH secretion (AtT-20 cells): only the peptide comprising amino acids 178-199 exhibited bioactivity
CRIF activity (ACTH secretion) [2]: only peptide 178-199 exhibited CRIF activity

prepro-TRH 115-151: intervening peptide of rat prepro-TRH, amino acids 115-151 (ANQDKYSWADEEDSDWMPRSWLPDFFLDSWFSDVPQV; UniProt P01150 115-151, looked up, fragment)
bioactivity: basal and CRF-stimulated ACTH secretion (AtT-20 cells): only the peptide comprising amino acids 178-199 exhibited bioactivity

prepro-TRH 25-50: intervening peptide of rat prepro-TRH, amino acids 25-50 (LPEAAQEEGAVTPDLPGLENVQVRPE; UniProt P01150 25-50, looked up, fragment)
bioactivity: basal and CRF-stimulated ACTH secretion (AtT-20 cells): only the peptide comprising amino acids 178-199 exhibited bioactivity

prepro-TRH 160-169: intervening peptide of rat prepro-TRH, amino acids 160-169 (SFPWMESDVT; UniProt P01150 160-169, looked up, fragment)
bioactivity: basal and CRF-stimulated ACTH secretion (AtT-20 cells): only the peptide comprising amino acids 178-199 exhibited bioactivity

Leu-Met-Pro-Glu (LMPE; printed: Leu-Met-Pro-Glu) [prepro-TRH 196-199, CRIF peptide having four contiguous amino acids]
PMA-stimulated ACTH secretion (At-20 cells): capable of inhibiting ACTH secretion at levels which are comparable to those achieved using full length CRIF

EGEGVLMPE [prepro-TRH 191-199, CRIF peptide having nine contiguous amino acids]
PMA-stimulated ACTH secretion (At-20 cells): capable of inhibiting ACTH secretion at levels which are comparable to those achieved using full length CRIF
floating in the forced swim test (F344XBN rats; icv sub-acute, equimolar 2.3 nmol/kg (2.2 μg/kg 191-199; 6 μg/kg 178-199), p<0.001): significantly decreased
climbing in the forced swim test (F344XBN rats; icv sub-acute, equimolar 2.3 nmol/kg (2.2 μg/kg 191-199; 6 μg/kg 178-199), p<0.01): increased
immobility in the forced swim test (F344XBN rats; icv, rat): decreased

KRQHPGKR [TRH precursor peptide]
CRIF activity (ACTH secretion) [2]: only peptide 178-199 exhibited CRIF activity

prepro-TRH 83-106: intervening peptide of rat prepro-TRH, amino acids 83-106 (EEEEKDIEAEERGDLGEGGAWRLH; UniProt P01150 83-106, looked up, fragment)
bioactivity: basal and CRF-stimulated ACTH secretion (AtT-20 cells): only the peptide comprising amino acids 178-199 exhibited bioactivity
